Measured values taken from patent US9302999B2, “Substituted triazoles as herbicides” (E. I. DU PONT DE NEMOURS AND COMPANY, priority 2012, dated 2016).

How the values were obtained:
Assay type in all cases: in vivo
[1] = tested on: foxtail, green (green foxtail, Setaria viridis); experiment: Test C pre-/postemergence: foxtail, green
Outline: (§1)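 Preemergence on seeds in loam/sand, postemergence on 2–18 cm (1–4-leaf) plants in peat-based medium; compounds in non-phytotoxic solvent with surfactant. After 13–15 days in greenhouse, visual rating versus controls, 0 (no effect) to 100 (complete control).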

[2] = tested on: bermudagrass (Cynodon dactylon); experiment: Test C pre-/postemergence: bermudagrass
Outline: as §1

[3] = tested on: surinam grass (Brachiaria decumbens); experiment: Test C pre-/postemergence: surinam grass
From the text: (§2) Seeds of plant species selected from blackgrass (Alopecurus myosuroides), bromegrass, downy (downy bromegrass, Bromus tectorum), foxtail, green (green foxtail, Setaria viridis), ryegrass, Italian (Italian ryegrass, Lolium multiflorum), winter wheat (Triticum aestivum), wild oat (Avena fatua), galium (catchweed bedstraw, Galium aparine), bermudagrass (Cynodon dactylon), surinam grass (Brachiaria decumbens), cocklebur (common cocklebur, Xanthium strumarium), corn (Zea mays), large crabgrass (Digitaria sanguinalis), woolly cupgrass (Eriochloa villosa), foxtail, giant (giant foxtail, Setaria faberii), goosegrass (Eleusine indica), johnsongrass (Sorghum halepense), kochia (Kochia scoparia), lambsquarters (Chenopodium album), morningglory (Ipomoea coccinea), nightshade (eastern black nightshade, Solanum ptycanthum), nutsedge, yellow (yellow nutsedge, Cyperus esculentus), pigweed (Amaranthus retroflexus), ragweed (common ragweed, Ambrosia elation), soybean (Glycine max), common (oilseed) sunflower (Helianthus annuus), Russian thistle (Salsola kali) and velvetleaf (Abutilon theophrasti) were planted into a blend of loam soil and sand and treated preemergence with test chemicals formulated in a non-phytotoxic solvent mixture which included a surfactant.
(§3) At the same time, plants selected from these crop and weed species and also barley (winter barley, Hordeum vulgare), canarygrass (Phalaris minor), chickweed (common chickweed, Stellaria media) windgrass (Apera spica-venti) and deadnettle (henbit deadnettle, Lamium amplexicaule) were planted in pots containing Redi-Earth® planting medium (Scotts Company, 14111 Scottslawn Road, Marysville, Ohio 43041) comprising spaghnum peat moss, vermiculite, wetting agent and starter nutrients and treated with postemergence applications of test chemicals formulated in the same manner. Plants ranged in height from 2 to 18 cm (1- to 4-leaf stage) for postemergence treatments.
(§4) Treated plants and controls were maintained in a greenhouse for 13 to 15 days, after which time all species were compared to controls and visually evaluated. Plant response ratings, summarized in Table C, are based on a scale of 0 to 100 where 0 is no effect and 100 is complete control. A dash (-) response means no test result.

[4] = tested on: cocklebur (common cocklebur, Xanthium strumarium); experiment: Test C pre-/postemergence: cocklebur
Outline: as §1

[5] = tested on: woolly cupgrass (Eriochloa villosa); experiment: Test C pre-/postemergence: woolly cupgrass
From the text: as §2, §3, §4

[6] = tested on: goosegrass (Eleusine indica); experiment: Test C pre-/postemergence: goosegrass
From the text: as §2, §3, §4

[7] = tested on: common (oilseed) sunflower (Helianthus annuus); experiment: Test C pre-/postemergence: sunflower; settings: Preemergence
From the text: as §2, §3, §4

[8] = tested on: barley (winter barley, Hordeum vulgare); experiment: Test C postemergence: barley
From the text: as §3, §4

[9] = tested on: canarygrass (Phalaris minor); experiment: Test C postemergence: canarygrass
Outline: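 Visual 0–100 injury score vs untreated controls (0 none, 100 complete control), taken 13–15 d after treatment. Postemergence spray on potted plants, 2–18 cm, 1–4 leaves; greenhouse.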

[10] = tested on: windgrass (Apera spica-venti); experiment: Test C postemergence: windgrass
From the text: as §3, §4

[11] = Postemergence, 31 g ai/ha, scale 0 to 100 (0 no effect, 100 complete control)
[12] = Postemergence, 62 g ai/ha, scale 0 to 100 (0 no effect, 100 complete control)
[13] = Postemergence, 125 g ai/ha, scale 0 to 100, 0 no effect, 100 complete control
[14] = Postemergence, 250 g ai/ha, scale 0 to 100
[15] = Preemergence, 31 g ai/ha, scale of 0 to 100, 0 is no effect, 100 is complete control
[16] = Preemergence, 62 g ai/ha, scale of 0 to 100, 0 is no effect, 100 is complete control
[17] = Preemergence, 125 g ai/ha, scale 0 to 100, 0 no effect, 100 complete control
[18] = Preemergence, 250 g ai/ha, scale 0 to 100, 0 no effect, 100 complete control
[19] = 31 g ai/ha, scale of 0 to 100, 0 is no effect, 100 is complete control
[20] = 62 g ai/ha, scale of 0 to 100, 0 is no effect, 100 is complete control
[21] = 125 g ai/ha, scale 0 to 100, 0 no effect, 100 complete control
[22] = 250 g ai/ha, scale 0 to 100, 0 no effect, 100 complete control
[23] = 31 g ai/ha, scale 0 to 100 (0 no effect, 100 complete control)
[24] = 62 g ai/ha, scale 0 to 100 (0 no effect, 100 complete control)

What does the source list for Cc1nn(-c2ccc(C(F)(F)F)c(F)c2)nc1Oc1ccnc(C(F)(F)F)c1 [Compound 148]?
Plant response rating, Foxtail, Green [1, 11]: 80; Plant response rating, Foxtail, Green [1, 12]: 98; Plant response rating, Foxtail, Green [1, 13]: 100; Plant response rating, Foxtail, Green [1, 14]: 100; Plant response rating, Foxtail, Green [1, 15]: 95; Plant response rating, Foxtail, Green [1, 16]: 95; Plant response rating, Foxtail, Green [1, 17]: 95; Plant response rating, Foxtail, Green [1, 18]: 95; Plant response rating, Bermudagrass [2, 11]: 10; Plant response rating, Bermudagrass [2, 12]: 30; Plant response rating, Bermudagrass [2, 13]: 50; Plant response rating, Bermudagrass [2, 14]: 55; Plant response rating, Bermudagrass [2, 15]: 98; Plant response rating, Bermudagrass [2, 16]: 100; Plant response rating, Bermudagrass [2, 17]: 100; Plant response rating, Bermudagrass [2, 18]: 100; Plant response rating, Surinam Grass [3, 11]: 20; Plant response rating, Surinam Grass [3, 12]: 20; Plant response rating, Surinam Grass [3, 13]: 25; Plant response rating, Surinam Grass [3, 14]: 30; Plant response rating, Surinam Grass [3, 15]: 60; Plant response rating, Surinam Grass [3, 16]: 75; Plant response rating, Surinam Grass [3, 17]: 75; Plant response rating, Surinam Grass [3, 18]: 100; Plant response rating, Cocklebur [4, 11]: 85; Plant response rating, Cocklebur [4, 12]: 98; Plant response rating, Cocklebur [4, 13]: 98; Plant response rating, Cocklebur [4, 15]: 10; Plant response rating, Cupgrass, Woolly [5, 11]: 55; Plant response rating, Cupgrass, Woolly [5, 12]: 55; Plant response rating, Cupgrass, Woolly [5, 13]: 65; Plant response rating, Cupgrass, Woolly [5, 14]: 75; Plant response rating, Cupgrass, Woolly [5, 15]: 50; Plant response rating, Cupgrass, Woolly [5, 16]: 90; Plant response rating, Cupgrass, Woolly [5, 17]: 95; Plant response rating, Cupgrass, Woolly [5, 18]: 98; Plant response rating, Goosegrass [6, 12]: 15; Plant response rating, Goosegrass [6, 13]: 25; Plant response rating, Goosegrass [6, 14]: 40; Plant response rating, Goosegrass [6, 15]: 90; Plant response rating, Goosegrass [6, 16]: 95; Plant response rating, Goosegrass [6, 17]: 98; Plant response rating, Goosegrass [6, 18]: 100; Plant response rating, Sunflower [7, 19]: 0; Plant response rating, Sunflower [7, 20]: 0; Plant response rating, Sunflower [7, 21]: 10; Plant response rating, Sunflower [7, 22]: 10; Plant response rating, Barley [8, 23]: 35; Plant response rating, Barley [8, 24]: 35; Plant response rating, Barley [8, 21]: 40; Plant response rating, Barley ([8]; 250 g ai/ha, scale 0 to 100): 45; Plant response rating, Canarygrass [9, 23]: 40; Plant response rating, Canarygrass [9, 24]: 60; Plant response rating, Canarygrass [9, 21]: 95; Plant response rating, Canarygrass ([9]; 250 g ai/ha, scale 0 to 100): 95; Plant response rating, Windgrass [10, 23]: 60; Plant response rating, Windgrass [10, 24]: 80; Plant response rating, Windgrass [10, 21]: 98; Plant response rating, Windgrass ([10]; 250 g ai/ha, scale 0 to 100): 100

Which “Plant response rating, Foxtail, Green” value [1, 15] does the source give for Cc1nn(-c2ccc(F)cc2F)nc1Oc1ccnc(C(F)(F)F)c1 [Compound 146] here?
The value was 90.

And the “Plant response rating, Foxtail, Green” value [1, 16]?
Its value is 90.

What about the “Plant response rating, Foxtail, Green” value [1, 17] of the same compound?
Its value is 90.

And the “Plant response rating, Foxtail, Green” value [1, 18]?
The value was 90.

What about the “Plant response rating, Bermudagrass” value [2, 15] of the same compound?
The value was 98.

And the “Plant response rating, Bermudagrass” value [2, 16]?
The value was 98.

And the “Plant response rating, Bermudagrass” value [2, 17]?
Its value is 98.

What about the “Plant response rating, Bermudagrass” value [2, 18] of the same compound?
The value was 98.

And the “Plant response rating, Surinam Grass” value [3, 15]?
The value was 10.

And the “Plant response rating, Surinam Grass” value [3, 16]?
Its value is 20.

What about the “Plant response rating, Surinam Grass” value [3, 17] of the same compound?
Its value is 100.

And the “Plant response rating, Surinam Grass” value [3, 18]?
The value was 100.

What about the “Plant response rating, Cocklebur” value [4, 15] of the same compound?
The value was 0.

And the “Plant response rating, Cocklebur” value [4, 16]?
The value was 0.

What about the “Plant response rating, Cocklebur” value [4, 17] of the same compound?
Its value is 0.

And the “Plant response rating, Cocklebur” value [4, 18]?
Its value is 0.

What about the “Plant response rating, Cupgrass, Woolly” value [5, 15] of the same compound?
Its value is 40.

And the “Plant response rating, Cupgrass, Woolly” value [5, 16]?
Its value is 45.

What about the “Plant response rating, Cupgrass, Woolly” value [5, 17] of the same compound?
Its value is 90.

What about the “Plant response rating, Cupgrass, Woolly” value [5, 18] of the same compound?
Its value is 100.

What about the “Plant response rating, Goosegrass” value [6, 15] of the same compound?
The value was 70.

And the “Plant response rating, Goosegrass” value [6, 16]?
Its value is 85.

And the “Plant response rating, Goosegrass” value [6, 17]?
Its value is 100.

What about the “Plant response rating, Goosegrass” value [6, 18] of the same compound?
The value was 100.

What about the “Plant response rating, Sunflower” value [7, 19] of the same compound?
The value was 10.

And the “Plant response rating, Sunflower” value [7, 20]?
Its value is 20.

And the “Plant response rating, Sunflower” value [7, 21]?
The value was 30.

And the “Plant response rating, Sunflower” value [7, 22]?
The value was 35.
